The text below walks through data of the supplement of paper PMC10307832.

Holding throughout (test): relative viability (nuclei count vs DMSO), 5 days (fraction); higher = more cells survive
Compound in the experiment “RU-SKI 43 + Trametinib”: CC[C@@H](C)CNCC(=O)N1CCC2=C([C@@H]1COC3=CC=CC(=C3)C)C=CS2 [RU-SKI 43] + CC(=O)Nc1cccc(-n2c(=O)n(C3CC3)c(=O)c3c(Nc4ccc(I)cc4F)n(C)c(=O)c(C)c32)c1 [Trametinib] (partner 0.02 µM)
In outline: (§1)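 Lung cancer cell lines in 1536-well plates were dosed by pin tool the day after seeding, either with one drug alone or with a fixed anchor-drug dose plus five library-drug doses (not always all listed) in √10 steps. After 5 days, cells were fixed and their nuclei stained in one step (final 0.05% Triton X-100, 1% formaldehyde, 1 ug/ml Hoechst), then counted on 4× images. Relative viability is the nuclei count in treated wells divided by that in vehicle wells. Values are medians of duplicate plates.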

Compound in the experiment “MK-8033 + Navitoclax”: Cn1cc(-c2cnc3ccc4ccc(CS(=O)(=O)NCc5ccccn5)cc4c(=O)c3c2)cn1 [MK-8033] + CC1(C)CCC(c2ccc(Cl)cc2)=C(CN2CCN(c3ccc(C(=O)NS(=O)(=O)c4ccc(N[C@H](CCN5CCOCC5)CSc5ccccc5)c(S(=O)(=O)C(F)(F)F)c4)cc3)CC2)C1 [Navitoclax] (partner 0.5 µM)
In outline: as §1

Compound in the experiment “MK-8033 + Phenformin”: Cn1cc(-c2cnc3ccc4ccc(CS(=O)(=O)NCc5ccccn5)cc4c(=O)c3c2)cn1 [MK-8033] + N=C(N)NC(=N)NCCc1ccccc1 [Phenformin] (partner 250 µM)
In outline: as §1

Compound in the experiment “MK-8033 + Olaparib”: Cn1cc(-c2cnc3ccc4ccc(CS(=O)(=O)NCc5ccccn5)cc4c(=O)c3c2)cn1 [MK-8033] + O=C(c1cc(Cc2n[nH]c(=O)c3ccccc23)ccc1F)N1CCN(C(=O)C2CC2)CC1 [Olaparib] (partner 8 µM)
In outline:
as §1

For ChaGo-K-1, the relative viability with RU-SKI 43 + Trametinib (first compound 0.1 µM) turned out to be 0.921; with RU-SKI 43 + Trametinib (first compound 0.3162 µM), 1.01; with RU-SKI 43 + Trametinib (first compound 1 µM) it was 0.899; with RU-SKI 43 + Trametinib (first compound 3.162 µM), 0.941; with RU-SKI 43 + Trametinib (first compound 10 µM), 0.906; with MK-8033 + Navitoclax (first compound 0.02 µM), 1.2. For the same cell line, the relative viability with MK-8033 + Navitoclax (first compound 0.06325 µM) was found to be 0.962; with MK-8033 + Navitoclax (first compound 0.2 µM), 0.945; with MK-8033 + Navitoclax (first compound 0.6325 µM), 1.04; with MK-8033 + Navitoclax (first compound 2 µM), 0.922; in the experiment with MK-8033 + Phenformin (first compound 0.02 µM), 0.477; with MK-8033 + Phenformin (first compound 0.06325 µM) it was 0.479. Also, the relative viability with MK-8033 + Phenformin (first compound 0.2 µM) was found to be 0.435; in the experiment with MK-8033 + Phenformin (first compound 0.6325 µM) it was 0.512; with MK-8033 + Phenformin (first compound 2 µM) it was 0.5; in the experiment with MK-8033 + Olaparib (first compound 0.02 µM), 0.442; with MK-8033 + Olaparib (first compound 0.06325 µM), 0.412; with MK-8033 + Olaparib (first compound 0.2 µM), 0.415. Besides, the relative viability with MK-8033 + Olaparib (first compound 0.6325 µM) amounted to 0.433; with MK-8033 + Olaparib (first compound 2 µM), 0.372.

EBC-1: the relative viability with MK-8033 + Navitoclax (first compound 0.02 µM) turned out to be 0.428; in the experiment with MK-8033 + Navitoclax (first compound 0.06325 µM), 0.383; in the experiment with MK-8033 + Navitoclax (first compound 0.2 µM), 0.474; with MK-8033 + Navitoclax (first compound 0.6325 µM) it was 0.404; with MK-8033 + Navitoclax (first compound 2 µM) it was 0.13; in the experiment with MK-8033 + Olaparib (first compound 0.02 µM), 0.659. Further, the relative viability was determined as 0.565 with MK-8033 + Olaparib (first compound 0.06325 µM), 0.792 in the experiment with MK-8033 + Olaparib (first compound 0.2 µM), 0.648 in the experiment with MK-8033 + Olaparib (first compound 0.6325 µM) and 0.568 with MK-8033 + Olaparib (first compound 2 µM).

As for EKVX, the relative viability with RU-SKI 43 + Trametinib (first compound 0.1 µM) stood at 0.275; with RU-SKI 43 + Trametinib (first compound 0.3162 µM), 0.312; in the experiment with RU-SKI 43 + Trametinib (first compound 1 µM), 0.268; with RU-SKI 43 + Trametinib (first compound 3.162 µM), 0.349; with RU-SKI 43 + Trametinib (first compound 10 µM) it was 0.315; with MK-8033 + Navitoclax (first compound 0.02 µM) it was 0.939. In addition, the relative viability with MK-8033 + Navitoclax (first compound 0.06325 µM) came out at 0.923; with MK-8033 + Navitoclax (first compound 0.2 µM), 0.916; with MK-8033 + Navitoclax (first compound 0.6325 µM) it was 0.82; with MK-8033 + Navitoclax (first compound 2 µM), 0.96; in the experiment with MK-8033 + Phenformin (first compound 0.02 µM) it was 0.222; with MK-8033 + Phenformin (first compound 0.06325 µM) it was 0.211. In addition, the relative viability was determined as 0.238 with MK-8033 + Phenformin (first compound 0.2 µM); 0.22 in the experiment with MK-8033 + Phenformin (first compound 0.6325 µM); 0.254 with MK-8033 + Phenformin (first compound 2 µM); 0.85 with MK-8033 + Olaparib (first compound 0.02 µM); 0.842 with MK-8033 + Olaparib (first compound 0.06325 µM); 0.825 with MK-8033 + Olaparib (first compound 0.2 µM). Moreover, the relative viability in the experiment with MK-8033 + Olaparib (first compound 0.6325 µM) stood at 0.763; with MK-8033 + Olaparib (first compound 2 µM), 0.859.

In the case of EMC-BAC-2, the relative viability in the experiment with RU-SKI 43 + Trametinib (first compound 0.1 µM) stood at 0.857; in the experiment with RU-SKI 43 + Trametinib (first compound 0.3162 µM) it was 0.9; in the experiment with RU-SKI 43 + Trametinib (first compound 1 µM), 0.939; in the experiment with RU-SKI 43 + Trametinib (first compound 3.162 µM), 0.861; with RU-SKI 43 + Trametinib (first compound 10 µM), 0.749; with MK-8033 + Navitoclax (first compound 0.02 µM), 1.16. In addition, the relative viability in the experiment with MK-8033 + Navitoclax (first compound 0.06325 µM) is 1.06; with MK-8033 + Navitoclax (first compound 0.2 µM) it was 1.12; with MK-8033 + Navitoclax (first compound 0.6325 µM) it was 1.14; in the experiment with MK-8033 + Navitoclax (first compound 2 µM) it was 1.15; with MK-8033 + Phenformin (first compound 0.02 µM) it was 0.554; with MK-8033 + Phenformin (first compound 0.06325 µM) it was 0.509. Besides, the relative viability in the experiment with MK-8033 + Phenformin (first compound 0.2 µM) came to 0.531; with MK-8033 + Phenformin (first compound 0.6325 µM), 0.556; with MK-8033 + Phenformin (first compound 2 µM), 0.494; with MK-8033 + Olaparib (first compound 0.02 µM), 0.501; with MK-8033 + Olaparib (first compound 0.06325 µM), 0.477; in the experiment with MK-8033 + Olaparib (first compound 0.2 µM), 0.473. Also, the relative viability with MK-8033 + Olaparib (first compound 0.6325 µM) stood at 0.49; with MK-8033 + Olaparib (first compound 2 µM) it was 0.479.
